The values below come from patent US11040952B2, “Phthalazinone compound, method for preparation thereof, pharmaceutical composition thereof, and use thereof” (SHANGHAI INSTITUTE OF MATERIA MEDICA, CHINESE ACADEMY OF …, priority 2017, dated 2021).

Molecules are shown by their SMILES.

For one data set, the system named is HepG2.2.15 cells. As to the kind of experiment: MTT assay for cytotoxicity. Type of data set: cell-based, Human. Conditions: 8 days, half (50%) lethal concentration. In a few lines: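 HBV-transfected HepG2.2.15 cells were cultured with compound for 8 days at 37 °C in DMEM/10% FBS, with medium changed on day 4. Viability was read by MTT (4 h, then 12 h lysis, OD570) against control wells. CC50 is the concentration cutting viability by 50%.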
(Tetrazolium assays rely on reduction of a dye to a coloured formazan, in cell work by metabolically active cells.)
Usually CC50 stands for the concentration at which the toxic effect on the cells reaches its halfway point. High values mean better tolerance by the cells, low ones harm at low concentration. Compound `COc1ccc(-c2nn(Cc3ccc(Cl)cc3)c(=O)c3ccccc23)c(F)n1` [Compound I-4] registered a CC50 of over 100 µM.

Regarding `CN(C)CCNc1ccc(-c2nn(Cc3ccc(C#N)cc3)c(=O)c3ccccc23)c(F)n1` [IV-37], the 50% cytotoxic concentration (CC50) is 86.5 µM.

The compound `COc1ccc(-c2nn(Cc3ccc(Cl)cc3)c(=O)c3ccccc23)c(F)n1` [Compound I-20] gave a cytotoxic concentration (CC50) of 33.3 µM.

A further data set has as its system HBV. As to the kind of experiment: HBV DNA content in the supernatant of cell culture (real-time PCR). Conditions: inhibition of HBV DNA replication, HepG2.2.15 supernatant, 8 days. Type of data set: cell-based, hepatitis B virus (HBV). In a few lines:
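HepG2.2.15 cells stably carrying full-length HBV exposed to compounds for 8 days in DMEM with 10% FBS, medium renewed on day 4. Supernatant virion HBV DNA extracted and quantified by real-time PCR against a 1e^7-1e^4 IU/ml standard curve; IC50 calculated.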
(In general: Real-time PCR tracks product formation cycle by cycle.)
The IC50 is the concentration at which inhibition is half-maximal. A high value points to weaker potency. As for `COc1ccc(-c2nn(Cc3ccc(Cl)cc3)c(=O)c3ccccc23)c(F)n1` [Compound I-4], the concentration for half-maximal inhibition (IC50) turned out to be 3.1 µM. That is a single-digit micromolar value.

`CN(C)CCNc1ccc(-c2nn(Cc3ccc(C#N)cc3)c(=O)c3ccccc23)c(F)n1` [IV-37] returned an IC50 of 2.18 µM.

For `COc1ccc(-c2nn(Cc3ccc(Cl)cc3)c(=O)c3ccccc23)c(F)n1` [Compound I-20], the IC50 was 1.3 µM.
